Source: patent publication US7217698B2, “Use of mannosamine derivatives for the stimulation of neurite growth” (Dompatent von Kreisler Selting Werner, priority 2001, dated 2007)

System: PC12 cells
Assay: Neurite growth of NGF-stimulated PC12 cells with added ManNProp
Assay type: cell-based
Conditions: two days, control NGF only
Experimental: It is known that stimulation with nerve growth factor (NGF) causes neuronal differentiation in PC12 cells. At an NGF concentration of 250 ng/ml and after three days of incubation, the PC12 cells already form a network of neurites. In order to examine whether the addition of ManNProp has an influence on the neurite formation by PC12 cells, the suitable neurite lengths for different incubation times were first titrated with different NGF concentrations. At an NGF concentration of 100 ng and an incubation time of two days, the cells formed neurites whose length were double the diameter of their cell. Under such conditions, the further course of the experiments was set up. The cells were plated with a constant number of cells on culture chambers which consisted of four chambers and were coated with collagen I (col.), poly-D-lysine (PDL) or laminin, and incubated under three different sets of conditions. Each variation was represented in duplicate. In the first chamber, the PC12 cells were incubated with 5 mM ManNProp, and in the second chamber, they were incubated with 100 ng of NGF. […] The first and second chambers served as a reference control for the cells under the influence of NGF and ManNProp. For each experiment, three culture chambers were sown in duplicate. After two days of incubation, the cells were fixed with paraformaldehyde, stained with crystal violet and washed with water. For evaluation, various segments were photographed and measured according to a random choice principle. For the evaluation, only the cells stimulated with NGF which served as a control and the cells stimulated with NGF plus ManNProp were considered. Each bar represents three experiments performed on three different days. The relative neurite length was established by CAPA (computer-assisted process analysis), and the data were integrated by means of Delta Graph. All experiments shown here were independently performed on different days. The values from Table 1 were additionally represented graphically in FIG. 3.

**Q.** What does the source list for `CCC(=O)N[C@@H]1C(O)O[C@H](CO)[C@@H](O)[C@@H]1O` (stereo partly drawn) [ManNProp, N-propanoylmannosamine]?
**A.** Enhancement of neurite growth in percent relative to the control (Col. (collagen I) coating, 0.5 mM ManNProp + 100 ng NGF): 3%; Enhancement of neurite growth in percent relative to the control (Col. (collagen I) coating, 5 mM ManNProp + 100 ng NGF): 11%; Enhancement of neurite growth in percent relative to the control (Col. (collagen I) coating, 25 mM ManNProp + 100 ng NGF): 20%; Enhancement of neurite growth in percent relative to the control (Laminin coating, 0.5 mM ManNProp + 100 ng NGF): 28%; Enhancement of neurite growth in percent relative to the control (Laminin coating, 5 mM ManNProp + 100 ng NGF): 70%; Enhancement of neurite growth in percent relative to the control (Laminin coating, 25 mM ManNProp + 100 ng NGF): 59%; Enhancement of neurite growth in percent relative to the control (PDL (poly-D-lysine) coating, 0.5 mM ManNProp + 100 ng NGF): 4%; Enhancement of neurite growth in percent relative to the control (PDL (poly-D-lysine) coating, 5 mM ManNProp + 100 ng NGF): 5%; Enhancement of neurite growth in percent relative to the control (PDL (poly-D-lysine) coating, 25 mM ManNProp + 100 ng NGF): 17%
